This is an account of results in paper PMC5218480 (PLoS ONE, 2017).

The subject of the assay is MV-4-11 cells. As to the kind of experiment: Gene expression microarray analysis (Affymetrix PrimeView) and GSEA. Conditions: ProbeSet 11743882_a_at; LIST D. The assay is classed as cell-based, human. On the set-up: RFU PODN (11730768_x_at) / Fold change /veh PODN (11730768_x_at) / RFU LINC00158 (11744669_a_at) / Fold change /veh LINC00158 (11744669_a_at) / RFU DUSP10 (11751237_a_at) / Fold change /veh DUSP10 (11751237_a_at) / RFU ID3 (11757404_x_at) / Fold change /veh ID3 (11757404_x_at) / RFU PLEKHG5 (11737974_s_at) / Fold change /veh PLEKHG5 (11737974_s_at) / RFU LRRC4B (11730491_at) / Fold change /veh LRRC4B (11730491_at) / RFU GIMAP4 (11747438_a_at) / Fold change /veh GIMAP4 (11747438_a_at) / RFU KRT8 (11758183_x_at) / Fold change /veh KRT8 (11758183_x_at) / RFU CNN1 (11734310_a_at) / Fold change /veh CNN1 (11734310_a_at) / RFU VPS37D (11726825_at) / Fold change /veh VPS37D (11726825_at) / RFU C10orf10 (11716522_x_at) / Fold change /veh C10orf10 (11716522_x_at) / RFU KIR2DL2 /// KIR2DL4 /// KIR2DL5A /// KIR2DL5B /// KIR2DS1 /// KIR2DS2 /// KIR2DS3 /// KIR2DS4 /// KIR3DL3 /// KIR3DL3 /// KIR3DS1 (11738374_at) / Fold change /veh KIR2DL2 /// KIR2DL4 /// KIR2DL5A /// KIR2DL5B /// KIR2DS1 /// KIR2DS2 /// KIR2DS3 /// KIR2DS4 /// KIR3DL3 /// KIR3DL3 /// KIR3DS1 (11738374_at) / RFU C1QL1 (11718748_at) / Fold change /veh C1QL1 (11718748_at) / RFU TMPRSS4 (11747572_a_at) / Fold change /veh TMPRSS4 (11747572_a_at) / RFU HAMP (11756126_x_at) / Fold change /veh HAMP (11756126_x_at) / RFU RNFT2 (11725882_a_at) / Fold change /veh RNFT2 (11725882_a_at) / RFU NR4A2 (11747474_a_at) / Fold change /veh NR4A2 (11747474_a_at) / RFU ABCC12 (11746883_a_at) / Fold change /veh ABCC12 (11746883_a_at) / RFU TMEM136 (11760407_x_at) / Fold change /veh TMEM136 (11760407_x_at) / RFU CLDN22 /// WWC2 (11732394_at) / Fold change /veh CLDN22 /// WWC2 (11732394_at) / RFU HLA-DPB1 (11760878_x_at) / Fold change /veh HLA-DPB1 (11760878_x_at) / RFU SPINT1 (11716480_a_at) / Fold change /veh SPINT1 (11716480_a_at) / RFU GAP43 (11754022_s_at) / Fold change /veh GAP43 (11754022_s_at) / RFU A4GNT (11735810_at) / Fold change /veh A4GNT (11735810_at) / RFU PRB3 (11715151_x_at) / Fold change /veh PRB3 (11715151_x_at) / RFU TUBB4B (11761932_at) / Fold change /veh TUBB4B (11761932_at) / RFU CAPN14 (11732068_a_at) / Fold change /veh CAPN14 (11732068_a_at) / RFU TMCC2 (11721928_a_at) / Fold change /veh TMCC2 (11721928_a_at) / RFU IRGQ (11745062_a_at) / Fold change /veh IRGQ (11745062_a_at) / RFU FAM174B (11720279_a_at) / Fold change /veh FAM174B (11720279_a_at) / RFU TMPRSS4 (11748680_a_at) / Fold change /veh TMPRSS4 (11748680_a_at) / RFU FAM212B (11763350_a_at) / Fold change /veh FAM212B (11763350_a_at) / RFU PLEKHG5 (11743358_a_at) / Fold change /veh PLEKHG5 (11743358_a_at) / RFU ZSCAN30 (11745921_a_at) / Fold change /veh ZSCAN30 (11745921_a_at) / RFU CMKLR1 (11741424_a_at) / Fold change /veh CMKLR1 (11741424_a_at) / RFU LOC101060620 /// MAPK8IP1 (11723275_at) / Fold change /veh LOC101060620 /// MAPK8IP1 (11723275_at) / RFU SPTSSB (11747773_x_at) / Fold change /veh SPTSSB (11747773_x_at) / RFU PRSS12 (11739890_at) / Fold change /veh PRSS12 (11739890_at) / RFU BIN1 (11741810_x_at) / Fold change /veh BIN1 (11741810_x_at) / RFU WNT11 (11732464_a_at) / Fold change /veh WNT11 (11732464_a_at) / RFU C10orf10 (11716521_a_at) / Fold change /veh C10orf10 (11716521_a_at) / RFU C5orf56 (11738089_at) / Fold change /veh C5orf56 (11738089_at) / RFU CYB561 (11721691_x_at) / Fold change /veh CYB561 (11721691_x_at) / RFU ANKRD19P (11752326_a_at) / Fold change /veh ANKRD19P (11752326_a_at) / RFU OR2T12 /// OR2T33 /// OR2T8 (11738714_s_at) / Fold change /veh OR2T12 /// OR2T33 /// OR2T8 (11738714_s_at) / RFU VCAN (11748164_a_at) / Fold change /veh VCAN (11748164_a_at) / RFU JSRP1 (11732532_at) / Fold change /veh JSRP1 (11732532_at) / RFU KRTAP10-11 (11738290_x_at) / Fold change /veh KRTAP10-11 (11738290_x_at) / RFU MYO3A (11730013_a_at) / Fold change /veh MYO3A (11730013_a_at) / RFU EBF3 (11725865_a_at) / Fold change /veh EBF3 (11725865_a_at) / RFU CAMK2N1 (11719241_x_at) / Fold change /veh CAMK2N1 (11719241_x_at) / RFU C5orf56 (11738088_a_at) / Fold change /veh C5orf56 (11738088_a_at) / RFU OLFML3 (11715873_a_at) / Fold change /veh OLFML3 (11715873_a_at) / RFU LOC100653217 /// NTM (11731650_a_at) / Fold change /veh LOC100653217 /// NTM (11731650_a_at) / RFU MAPK11 (11762145_a_at) / Fold change /veh MAPK11 (11762145_a_at) / RFU FIZ1 (11724087_x_at) / Fold change /veh FIZ1 (11724087_x_at) / RFU OASL (11726364_x_at) / Fold change /veh OASL (11726364_x_at) / RFU SOX15 (11748057_x_at) / Fold change /veh SOX15 (11748057_x_at) / RFU CD79A (11719716_a_at) / Fold change /veh CD79A (11719716_a_at) / RFU HIST1H1D (11736915_at) / Fold change /veh HIST1H1D (11736915_at) / RFU CASKIN2 (11723855_a_at) / Fold change /veh CASKIN2 (11723855_a_at) / RFU LOC730098 (11760151_x_at) / Fold change /veh LOC730098 (11760151_x_at) / RFU OR4N2 (11742367_at) / Fold change /veh OR4N2 (11742367_at) / RFU PRRT2 (11749266_a_at) / Fold change /veh PRRT2 (11749266_a_at) / RFU SNX32 (11753110_a_at) / Fold change /veh SNX32 (11753110_a_at) / RFU CDHR5 (11726645_a_at) / Fold change /veh CDHR5 (11726645_a_at) / RFU RCAN1 (11760418_a_at) / Fold change /veh RCAN1 (11760418_a_at) / RFU FAM167A (11723789_a_at) / Fold change /veh FAM167A (11723789_a_at) / RFU FAM26E (11764081_at) / Fold change /veh FAM26E (11764081_at) / RFU ISYNA1 (11749810_s_at) / Fold change /veh ISYNA1 (11749810_s_at) / RFU ACY1 (11761880_at) / Fold change /veh ACY1 (11761880_at) / RFU 11764098_at / Fold change /veh 11764098_at / RFU SAMD14 (11745864_x_at) / Fold change /veh SAMD14 (11745864_x_at) / RFU NPB (11741838_a_at) / Fold change /veh NPB (11741838_a_at) / RFU TMPRSS6 (11731388_a_at) / Fold change /veh TMPRSS6 (11731388_a_at) / RFU KRTAP10-2 (11738614_at) / Fold change /veh KRTAP10-2 (11738614_at) / RFU ARHGAP8 /// PRR5-ARHGAP8 (11727945_x_at) / Fold change /veh ARHGAP8 /// PRR5-ARHGAP8 (11727945_x_at) / RFU KRTAP5-7 /// NADSYN1 (11734609_at) / Fold change /veh KRTAP5-7 /// NADSYN1 (11734609_at) / RFU RASL12 (11751679_a_at) / Fold change /veh RASL12 (11751679_a_at) / RFU CDKN2B (11736163_a_at) / Fold change /veh CDKN2B (11736163_a_at) / RFU PRF1 (11729649_at) / Fold change /veh PRF1 (11729649_at) / RFU, ZNF638 /// ZNF638-IT1 / Fold change vs veh, ZNF638 /// ZNF638-IT1 / RFU, PANK3 / Fold change vs veh, PANK3 / RFU, SH3YL1 / Fold change vs veh, SH3YL1 / RFU, ZEB2 / Fold change vs veh, ZEB2 / RFU, NRIP1 / Fold change vs veh, NRIP1 / RFU, PTTG1IP / Fold change vs veh, PTTG1IP / RFU, CAPN2 / Fold change vs veh, CAPN2 / RFU, MED14 / Fold change vs veh, MED14 / RFU, SNORA58 / Fold change vs veh, SNORA58 / RFU, C1orf63 / Fold change vs veh, C1orf63 / RFU, LRRFIP1 / Fold change vs veh, LRRFIP1 / RFU, NDUFAF7 / Fold change vs veh, NDUFAF7 / RFU, SLC12A2 / Fold change vs veh, SLC12A2 / RFU, IBTK / Fold change vs veh, IBTK / RFU, ESF1 / Fold change vs veh, ESF1 / Fold change vs veh, TMEM50B / RFU, TAOK1 / Fold change vs veh, TAOK1 / RFU, ACBD3 / Fold change vs veh, ACBD3 / RFU, TMA16 / Fold change vs veh, TMA16 / RFU, RWDD3 / Fold change vs veh, RWDD3 / RFU, BCAT1 / Fold change vs veh, BCAT1 / RFU, EDEM3 / Fold change vs veh, EDEM3 / RFU, TMEM33 / Fold change vs veh, TMEM33 / RFU, WDR75 / Fold change vs veh, WDR75 / RFU, AHCTF1 / Fold change vs veh, AHCTF1 / RFU, TFRC / Fold change vs veh, TFRC / RFU, ZDHHC17 / Fold change vs veh, ZDHHC17 / RFU, NOM1 / Fold change vs veh, NOM1 / RFU, ARL8B / Fold change vs veh, ARL8B / RFU, ZBTB11 / Fold change vs veh, ZBTB11 / RFU, TAMM41 / Fold change vs veh, TAMM41 / RFU, KIAA1704 /// LOC100996395 / Fold change vs veh, KIAA1704 /// LOC100996395 / RFU, ING1 / Fold change vs veh, ING1 / RFU, TRMT61B / Fold change vs veh, TRMT61B / RFU, FUBP3 / Fold change vs veh, FUBP3 / RFU, TP53 / Fold change vs veh, TP53 / RFU, TNKS2 / Fold change vs veh, TNKS2 / RFU, ZFP14 / Fold change vs veh, ZFP14 / RFU, ACTR2 / Fold change vs veh, ACTR2 / RFU, PPP3R1 / Fold change vs veh, PPP3R1 / RFU, PIK3R1 / Fold change vs veh, PIK3R1 / RFU, HNRNPA1 / Fold change vs veh, HNRNPA1 / RFU, RNF170 / Fold change vs veh, RNF170 / RFU, ZNF28 / Fold change vs veh, ZNF28 / RFU, RNGTT / Fold change vs veh, RNGTT / RFU, OGT / Fold change vs veh, OGT / RFU, BRD1 / Fold change vs veh, BRD1 / RFU, MARS / Fold change vs veh, MARS / RFU, ZNF655 / Fold change vs veh, ZNF655 / RFU, FAHD1 / Fold change vs veh, FAHD1 / RFU, BDP1 / Fold change vs veh, BDP1 / RFU, LRRCC1 / Fold change vs veh, LRRCC1 / RFU, ARID1A / Fold change vs veh, ARID1A / RFU, ZNF146 / Fold change vs veh, ZNF146 / RFU, ZNF330 / Fold change vs veh, ZNF330 / RFU, GPN3 / Fold change vs veh, GPN3 / RFU, C9orf123 / Fold change vs veh, C9orf123 / RFU, N4BP2L2 / Fold change vs veh, N4BP2L2 / RFU, ARFIP1 / Fold change vs veh, ARFIP1 / RFU, FAM179B / Fold change vs veh, FAM179B / RFU, BCL10 / Fold change vs veh, BCL10 / RFU, UHRF1BP1L / Fold change vs veh, UHRF1BP1L / RFU, BET1 / Fold change vs veh, BET1 / RFU, CNOT2 / Fold change vs veh, CNOT2 / RFU, ZNF268 / Fold change vs veh, ZNF268 / Fold change vs veh, ZNF507 / RFU, DGCR2 / Fold change vs veh, DGCR2 / RFU, WDSUB1 / Fold change vs veh, WDSUB1 / Fold change vs veh, HSP90B1 /// MIR3652 / RFU, ADSS / Fold change vs veh, ADSS / RFU, GK / Fold change vs veh, GK / RFU, ZNF148 / Fold change vs veh, ZNF148 / RFU, TAF9 / Fold change vs veh, TAF9 / RFU, SLC1A5 / Fold change vs veh, SLC1A5 / RFU, SLMO2 / Fold change vs veh, SLMO2 / RFU, ABCC4 / Fold change vs veh, ABCC4 / RFU, LOC101060439 /// RAP1B / Fold change vs veh, LOC101060439 /// RAP1B / RFU, RFX7 / Fold change vs veh, RFX7 / RFU, GTPBP10 / Fold change vs veh, GTPBP10 / RFU, CNEP1R1 / Fold change vs veh, CNEP1R1 / RFU, BIVM-ERCC5 /// ERCC5 / Fold change vs veh, BIVM-ERCC5 /// ERCC5 / RFU, ILF3 / Fold change vs veh, ILF3 / RFU 11762660_at / Fold change /veh 11762660_at / RFU VCAN (11757783_s_at) / Fold change /veh VCAN (11757783_s_at) / RFU DDX43 (11728927_at) / Fold change /veh DDX43 (11728927_at) / RFU KRT8 (11758188_x_at) / Fold change /veh KRT8 (11758188_x_at) / RFU NKD1 (11759106_at) / Fold change /veh NKD1 (11759106_at) / RFU SRD5A1 (11742802_a_at) / Fold change /veh SRD5A1 (11742802_a_at) / RFU TPSAB1 /// TPSB2 (11721975_s_at) / Fold change /veh TPSAB1 /// TPSB2 (11721975_s_at) / RFU GSTM3 (11746129_a_at) / Fold change /veh GSTM3 (11746129_a_at) / RFU IL23R (11737362_x_at) / Fold change /veh IL23R (11737362_x_at) / RFU TMEM51 (11727254_a_at) / Fold change /veh TMEM51 (11727254_a_at) / RFU PIWIL2 (11732686_x_at) / Fold change /veh PIWIL2 (11732686_x_at) / RFU ORM1 (11744905_x_at) / Fold change /veh ORM1 (11744905_x_at) / RFU CCDC152 (11743942_at) / Fold change /veh CCDC152 (11743942_at) / RFU ECM1 (11717891_a_at) / Fold change /veh ECM1 (11717891_a_at) / RFU IL23R (11748794_a_at) / Fold change /veh IL23R (11748794_a_at) / RFU TNFAIP8L3 (11732012_x_at) / Fold change /veh TNFAIP8L3 (11732012_x_at) / RFU MBOAT4 (11741988_at) / Fold change /veh MBOAT4 (11741988_at) / RFU 11764193_at / Fold change /veh 11764193_at / RFU TMEM53 (11763286_at) / Fold change /veh TMEM53 (11763286_at) / RFU MAGEB2 (11727129_at) / Fold change /veh MAGEB2 (11727129_at) / RFU TMEM200A (11744735_a_at) / Fold change /veh TMEM200A (11744735_a_at) / RFU CCDC152 (11751479_a_at) / Fold change /veh CCDC152 (11751479_a_at) / RFU FAM211A (11726209_a_at) / Fold change /veh FAM211A (11726209_a_at) / RFU RGS16 (11746705_a_at) / Fold change /veh RGS16 (11746705_a_at) / RFU VCAN (11755009_s_at) / Fold change /veh VCAN (11755009_s_at) / RFU RHOB (11743442_s_at) / Fold change /veh RHOB (11743442_s_at) / RFU RGS16 (11720943_a_at) / Fold change /veh RGS16 (11720943_a_at) / RFU RGS16 (11720944_at) / Fold change /veh RGS16 (11720944_at) / RFU, VPS4B / Fold change vs veh, VPS4B / RFU, CREB1 / Fold change vs veh, CREB1 / RFU, DNAJC13 / Fold change vs veh, DNAJC13 / RFU, GNAQ / Fold change vs veh, GNAQ / RFU, CDK5R1 / Fold change vs veh, CDK5R1 / RFU, ZRANB3 / Fold change vs veh, ZRANB3 / RFU, CUL4A / Fold change vs veh, CUL4A / RFU, CCNY / Fold change vs veh, CCNY / RFU, UFL1 / Fold change vs veh, UFL1 / RFU, COG3 / Fold change vs veh, COG3 / RFU, DIAPH2 / Fold change vs veh, DIAPH2 / RFU, SKA2 / Fold change vs veh, SKA2 / RFU, AFF3 / Fold change vs veh, AFF3 / RFU, LMF1 / Fold change vs veh, LMF1 / RFU, IPO11 / Fold change vs veh, IPO11 / RFU, DFFB / Fold change vs veh, DFFB / RFU, FOXP1 / Fold change vs veh, FOXP1 / RFU, CARD8 / Fold change vs veh, CARD8 / RFU, STRN3 / Fold change vs veh, STRN3 / RFU, ADK / Fold change vs veh, ADK / RFU, RASSF2 / Fold change vs veh, RASSF2 / RFU, WIPF1 / Fold change vs veh, WIPF1 / RFU, LARP1B / Fold change vs veh, LARP1B / RFU, RASA1 / Fold change vs veh, RASA1 / RFU, RB1 / Fold change vs veh, RB1 / RFU, PPFIA1 / Fold change vs veh, PPFIA1 / RFU, MAT2A / Fold change vs veh, MAT2A / RFU, CCT5 / Fold change vs veh, CCT5 / RFU, WDR92 / Fold change vs veh, WDR92 / RFU, CUX1 / Fold change vs veh, CUX1 / RFU, TTC7A / Fold change vs veh, TTC7A / RFU, TMEM135 / Fold change vs veh, TMEM135 / RFU, DEPTOR / Fold change vs veh, DEPTOR / RFU, CPM / Fold change vs veh, CPM / RFU, DNAJB6 / Fold change vs veh, DNAJB6 / RFU, CACNA2D3 / Fold change vs veh, CACNA2D3 / RFU, DTX4 / Fold change vs veh, DTX4 / RFU, TFCP2 / Fold change vs veh, TFCP2 / RFU, GMCL1 /// GMCL1P1 / Fold change vs veh, GMCL1 /// GMCL1P1 / RFU, AEBP2 / Fold change vs veh, AEBP2 / RFU, SNHG1 /// SNORD22 /// SNORD25 /// SNORD26 /// SNORD27 /// SNORD28 /// SNORD29 /// SNORD31 / Fold change vs veh, SNHG1 /// SNORD22 /// SNORD25 /// SNORD26 /// SNORD27 /// SNORD28 /// SNORD29 /// SNORD31 / Fold change (Aza/veh), C12orf56 (ProbeSet 11735607_a_at) / Fold change (ACY-1035/veh), C12orf56 (ProbeSet 11735607_a_at) / Fold change (Aza/veh), FGFR1OP (ProbeSet 11751329_s_at) / Fold change (ACY-1035/veh), FGFR1OP (ProbeSet 11751329_s_at) / Fold change (Aza/veh), VPS36 (ProbeSet 11739960_a_at) / Fold change (ACY-1035/veh), VPS36 (ProbeSet 11739960_a_at) / RFU SYPL1 (11715823_x_at) / Fold change /veh SYPL1 (11715823_x_at) / RFU IGFBP7 (11715501_s_at) / Fold change /veh IGFBP7 (11715501_s_at) / RFU REEP3 (11722064_at) / Fold change /veh REEP3 (11722064_at) / RFU IGLL1 (11728026_x_at) / Fold change /veh IGLL1 (11728026_x_at): dose or concentration left out as unconfirmed.

For `Nc1ncn([C@@H]2O[C@H](CO)[C@@H](O)[C@H]2O)c(=O)n1` [azacitidine], the “Fold change vs veh, STRN3” value is on record as 0.74.
